# Article PMC6686011, “Ruthenium(II) complexes with 6-methyl-2-thiouracil selectively reduce cell proliferation, cause DNA double-strand break and trigger caspase-mediated apoptosis through JNK/p38 pathways in human acute promyelocytic leukemia cells” (Scientific Reports, 2019)
# Experiments:
# B16-F10 (mouse melanoma) = experiment: Cytotoxicity, alamar blue assay; type: cell-based; conditions: for Selectivity index, B16-F10 versus MRC-5: SI = IC50[MRC-5]/IC50[B16-F10]; for Selectivity index, B16-F10 versus PBMC: SI = IC50[PBMC]/IC50[B16-F10]
# Protocol: (§1) Cytotoxicity was measured using alamar blue assay and was performed following the procedure that was described previously[21],[22]. Briefly, cells were inserted in 96-well plates and incubated overnight. Then, the complexes were dissolved in dimethyl sulfoxide (DMSO, LGC Biotechnology, São Paulo, SP, Brazil) and added to each well and incubated for 72 h. […] Before the end of treatment (4 h for cell lines and 24 h for PBMC), 20 μL of a stock solution (0.312 mg/mL) of alamar blue (resazurin, Sigma-Aldrich Co.) were added to each well. Absorbance at 570 nm and 600 nm was measured using SpectraMax 190 Microplate Reader (Molecular Devices, Sunnyvale, CA, USA).
# [1] = tested on: MRC-5 (human lung fibroblast); experiment: Cytotoxicity, alamar blue assay; type: cell-based; conditions: non-cancer cells, 72 h, read-out: IC50 and 95% CI, MRC-5
# Protocol: as §1
# [2] = tested on: PBMC (human peripheral blood mononuclear cells); experiment: Cytotoxicity, alamar blue assay; type: cell-based; conditions: non-cancer cells, 72 h, read-out: IC50 and 95% CI, PBMC
# Description: HL-60 (human acute promyelocytic leukemia), K-562 (human chronic myelogenous leukemia), HCT116 (human colon carcinoma), HepG2 (human hepatocellular carcinoma), HSC-3 (human oral squamous cell carcinoma), SCC-9 (human oral squamous cell carcinoma), B16-F10 (mouse melanoma), MRC-5 (human lung fibroblast), WT SV40 MEF (wild-type immortalized mouse embryonic fibroblast) and BAD KO SV40 MEF (BAD gene knockout immortalized mouse embryonic fibroblast) cell lines were obtained from American Type Culture Collection (ATCC, Manassas, VA, USA). Human peripheral blood mononuclear cells (PBMC) were isolated using standard Ficoll density gradient from heparinized blood collected from 20- to 35-year-old, non-smoker healthy donors with informed consent (number 031019/2013) approved by Human Ethics Committee of Gonçalo Moniz Institute from Oswaldo Cruz Foundation (IGM-FIOCRUZ/BA), and all experiments were performed in accordance with relevant guidelines and regulations. Cells were cultured as recommended by ATCC guidelines and a mycoplasma stain kit (Sigma-Aldrich) was used to validate the use of cells free from contamination. Cell viability in all experiments was examined using the trypan blue exclusion (TBE) assay. Over 90% of the cells were viable at the beginning of the culture.
# as §1
# HL-60 cells [3] = experiment: Intracellular ruthenium quantification by energy dispersive X-ray spectrometer; type: cell-based, human; conditions: HL-60, 3 h, 500 µM
# Protocol: Intracellular ruthenium quantification in HL-60 cells was evaluated by energy dispersive X-ray spectrometer (EDS)[23]. Cells were fixed in sodium cacodylate buffer (0.1 M sodium cacodylate solution pH 7.4, plus 2.5% glutaraldehyde and 2% paraformaldehyde) for at least 2 h. After washing, cells were dehydrated in an acetone series and embedded in polybed epoxy resin (Polysciences; Warrington, PA). Ultrathin sections were examined under a JEM-1230 transmission electron microscope (TEM) integrated with an EDS microanalytics system (JEOL USA, Inc., Peabody, MA, USA).
# [4] = tested on: BAD KO SV40 MEF (immortalized mouse embryonic fibroblast with the BAD gene knocked out); experiment: Cytotoxicity, alamar blue assay; type: cell-based; conditions: 72 h, read-out: IC50, BAD KO SV40 MEF cell line
# Protocol: as §1
# [5] = tested on: HCT116 (human colon carcinoma); experiment: Cytotoxicity, alamar blue assay; type: cell-based; conditions: for Selectivity index, HCT116 versus MRC-5: SI = IC50[MRC-5]/IC50[HCT116]; for Selectivity index, HCT116 versus PBMC: SI = IC50[PBMC]/IC50[HCT116]
# Protocol: as §1
# [6] = tested on: HL-60 (human acute promyelocytic leukemia); experiment: Cytotoxicity, alamar blue assay; type: cell-based; conditions: for Selectivity index, HL-60 versus MRC-5: SI = IC50[MRC-5]/IC50[HL-60]; for Selectivity index, HL-60 versus PBMC: SI = IC50[PBMC]/IC50[HL-60]; for IC50: alamar blue, 72 h, read-out: IC50 and 95% CI, HL-60
# Protocol: as §1
# [7] = tested on: HSC-3 (human oral squamous cell carcinoma); experiment: Cytotoxicity, alamar blue assay; type: cell-based; conditions: for Selectivity index, HSC-3 versus MRC-5: SI = IC50[MRC-5]/IC50[HSC-3]; for Selectivity index, HSC-3 versus PBMC: SI = IC50[PBMC]/IC50[HSC-3]; for IC50: alamar blue, 72 h, read-out: IC50 and 95% CI, HSC-3
# Protocol: as §1
# [8] = tested on: HepG2 (human hepatocellular carcinoma); experiment: Cytotoxicity, alamar blue assay; type: cell-based; conditions: for Selectivity index, HepG2 versus MRC-5: SI = IC50[MRC-5]/IC50[HepG2]; for Selectivity index, HepG2 versus PBMC: SI = IC50[PBMC]/IC50[HepG2]
# Protocol: as §1
# [9] = tested on: K-562 (human chronic myelogenous leukemia); experiment: Cytotoxicity, alamar blue assay; type: cell-based; conditions: for Selectivity index, K-562 versus MRC-5: SI = IC50[MRC-5]/IC50[K-562]; for Selectivity index, K-562 versus PBMC: SI = IC50[PBMC]/IC50[K-562]
# Protocol: as §1
# [10] = tested on: SCC-4 (human oral squamous cell carcinoma); experiment: Cytotoxicity, alamar blue assay; type: cell-based; conditions: for Selectivity index, SCC-4 versus MRC-5: SI = IC50[MRC-5]/IC50[SCC-4]; for Selectivity index, SCC-4 versus PBMC: SI = IC50[PBMC]/IC50[SCC-4]
# Protocol: as §1
# [11] = tested on: WT SV40 MEF (wild-type immortalized mouse embryonic fibroblasts); experiment: Cytotoxicity, alamar blue assay; type: cell-based; conditions: 72 h, read-out: IC50, WT SV40 MEF cell line
# Protocol: as §1
# HL-60 cells [12] = experiment: Trypan blue exclusion assay; type: cell-based, human
# Protocol: The number of viable cells and non-viable (take up trypan blue) were counted by TBE method. Shortly, 90 μL was removed from the cell suspension and 10 μL of trypan blue (0.4%) was added. Cell counting was performed using a light microscope with a neubauer chamber.
# HL-60 cells [13] = experiment: Apoptosis quantification, annexin V-FITC/PI flow cytometry; type: cell-based, human
# Protocol: Shortly, cells were washed twice with saline solution and resuspended in 100 μL of binding buffer plus 5 μL of propidium iodide (PI) and 5 μL of FITC Annexin V. Then, cells were gently mixed by vortexing and incubated for 15 min at room temperature in the dark. Finally, 400 μL of binding buffer was added to each tube, and the cell fluorescence was determined by flow cytometry, as described above. Percentage of viable, early apoptotic, late apoptotic and necrotic cells were measured. […] Cells were then analyzed by FITC Annexin V Apoptosis Detection assay as described above.
# HL-60 cell xenografts = experiment: Human myeloid leukemia xenograft model; type: in vivo, C.B-17 SCID mice
# Protocol: Fifty six specific-pathogen-free (SPF) C.B-17 severe combined immunodeficient (SCID) mice (females, 23–26 g) were used in this study. The animals were obtained and maintained at animal facilities from Gonçalo Moniz Institute-FIOCRUZ (Salvador, Bahia, Brazil), and housed in cages with free access to food and water, and kept under a 12:12 h light-dark cycle (lights on at 6:00 a.m.). The animals were treated according to ethical principles for animal experimentation of SBCAL (Brazilian Association of Laboratory Animal Science), Brazil. Experimental protocol have been approved (number 06/2015) by Animal Ethics Committee of Gonçalo Moniz Institute-FIOCRUZ (Salvador, Bahia, Brazil).
# Human myeloid leukemia xenograft model was carry out as described previously by Rodrigues et al.[26] with minor modifications. HL-60 cells (2.5 × 10^7 cells/500 µL) were implanted subcutaneously into the left front armpit of the mice. […] When the tumors reached 100 to 200 mm^3 (22 days after HL-60 cells injection), the animals were treated through the intraperitoneal route (200 µL per animal) once a day for 13 consecutive days. One day after the end of the treatment, the animals were anesthetized, and peripheral blood samples were collected from brachial artery. Animals were euthanized by anesthetic overdose, and tumors were excised and weighed.
# [14] = Toxicological evaluation in xenograft mice; type: in vivo, C.B-17 SCID mice; conditions: complex 1 20 and 40 mg/kg
# Protocol: To assess toxicological aspects, mice were weighed at the beginning and at the end of the experiment as described previously by Rodrigues et al.[26]. […] Hematological analysis was performed using the Advia 60 hematology system (Bayer, Leverkusen, Germany). Livers, kidneys, lungs and hearts were removed, weighed and examined for any signs of macroscopic lesions, color changes and/or hemorrhages. After macroscopic examination, tumors, livers, kidneys, lungs and hearts were fixed in 4% formalin buffer and embedded in paraffin. Tissue sections were stained with hematoxylin/eosin staining, and a pathologist performed the histological analyses under optical microscopy.
# any cells = experiment: Cytotoxicity, alamar blue assay, whole cell panel; type: cell-based; conditions: 72 h, not cytotoxic at concentrations tested
# Protocol: as §1
# [15] = 20 mg/kg intraperitoneal once a day for 13 consecutive days
# [16] = 40 mg/kg intraperitoneal once a day for 13 consecutive days
Compound,IC50 [1] [µM],IC50 [2] [µM],Intracellular platinum (HL-60 cells [3]),"Selectivity index, B16-F10 versus MRC-5 (B16-F10 (mouse melanoma))","Selectivity index, B16-F10 versus PBMC (B16-F10 (mouse melanoma))",IC50 [4] [µM],"Selectivity index, HCT116 versus MRC-5 [5]","Selectivity index, HCT116 versus PBMC [5]","Selectivity index, HL-60 versus MRC-5 [6]","Selectivity index, HL-60 versus PBMC [6]",IC50 [6] [µM],"Selectivity index, HSC-3 versus MRC-5 [7]","Selectivity index, HSC-3 versus PBMC [7]",IC50 [7] [µM],"Selectivity index, HepG2 versus MRC-5 [8]","Selectivity index, HepG2 versus PBMC [8]","Selectivity index, K-562 versus MRC-5 [9]","Selectivity index, K-562 versus PBMC [9]","Selectivity index, SCC-4 versus MRC-5 [10]","Selectivity index, SCC-4 versus PBMC [10]",further results
"O=C1[O][Pt]2([NH][C@@H]3CCCC[C@H]3[NH]2)[O]C1=O [oxaliplatin, reference compound]",1.54,14.9,able to quantify platinum,,,,,,,,,,,,,,,,,,"IC50 (B16-F10 (mouse melanoma); alamar blue, 72 h, read-out: IC50 and 95% CI, B16-F10): 0.03 µM"
[Ru(6m2tu)2(dppb)] [Complex 2],3.06,1.25,,2.9,1.2,4.2,2.6,1.1,23.5,9.6,0.13,1.5,0.6,2.04,3.7,1.5,9,3.7,2.5,1,"IC50 [11]: 3.9 µM; Reduction of the number of viable cells (HL-60 cells [12]; HL-60, 12 h, 1 μM): no statistically significant reduction; Reduction of the number of viable cells (HL-60 cells [12]; HL-60, 12 h, 2 μM): 44.1%; Reduction of the number of viable cells (HL-60 cells [12]; HL-60, 24 h, 1 μM): 36.1%; Reduction of the number of viable cells (HL-60 cells [12]; HL-60, 24 h, 2 μM): 60.1%; Apoptosis (annexin V-FITC positive cells) (HL-60 cells [13]; HL-60, 12 h, 1 μM): no statistically significant apoptosis induction; Apoptosis (annexin V-FITC positive cells) (HL-60 cells [13]; HL-60, 12 h, 2 μM): 31.1%; Apoptosis (annexin V-FITC positive cells) (HL-60 cells [13]; HL-60, 24 h, 1 μM): 32.1%; Apoptosis (annexin V-FITC positive cells) (HL-60 cells [13]; HL-60, 24 h, 2 μM): 55.9%"
"Cc1cc(=O)[nH]c([S][Ru]([S]c2nc(C)cc(=O)[nH]2)([PH](c2ccccc2)(c2ccccc2)c2ccccc2)[PH](c2ccccc2)(c2ccccc2)c2ccccc2)n1 [Complex 1, cis-[Ru(6m2tu)2(PPh3)2]]",5.71,2.57,,6.9,3.1,3.1,4.1,1.9,571,257,0.01,1.3,0.6,4.37,6,2.7,28.6,12.9,3.5,1.6,"IC50 [11]: 3.5 µM; Reduction of the number of viable cells (HL-60 cells [12]; HL-60, 12 h, 1 μM): no statistically significant reduction; Reduction of the number of viable cells (HL-60 cells [12]; HL-60, 12 h, 2 μM): 36.9%; Reduction of the number of viable cells (HL-60 cells [12]; HL-60, 24 h, 1 μM): 65.3%; Reduction of the number of viable cells (HL-60 cells [12]; HL-60, 24 h, 2 μM): 77.1%; Apoptosis (annexin V-FITC positive cells) (HL-60 cells [13]; HL-60, 12 h, 1 μM): no statistically significant apoptosis induction; Apoptosis (annexin V-FITC positive cells) (HL-60 cells [13]; HL-60, 12 h, 2 μM): 37.2%; Apoptosis (annexin V-FITC positive cells) (HL-60 cells [13]; HL-60, 24 h, 1 μM): 38.5%; Apoptosis (annexin V-FITC positive cells) (HL-60 cells [13]; HL-60, 24 h, 2 μM): 66.4%; Mean of tumor mass weight (HL-60 cell xenografts; [15]): 0.4 ± 0.1 g; Tumor mass inhibition rate (HL-60 cell xenografts; [15]): 73.1%; Mean of tumor mass weight (HL-60 cell xenografts; [16]): 0.3 ± 0.1 g; Tumor mass inhibition rate (HL-60 cell xenografts; [16]): 79.9%; Tumor histomorphological analysis (HL-60 cell xenografts; 20 and 40 mg, hematoxylin/eosin): areas with nodular/encapsulated growth and extracellular matrix formation were more evident; Liver histopathology [14]: focal areas of steatosis were observed; Kidney histopathology ([14]; doxorubicin 0.1 mg/kg): Coagulation necrosis was observed in renal tubules; Lung histopathology ([14]; doxorubicin 0.1 mg/kg): inflammation was more evident"
N.N.[Cl][Pt][Cl] [cisplatin],,,able to quantify platinum,,,,,,,,,,,,,,,,,,
Cc1cc(=O)[nH]c(=S)[nH]1 [6-methyl-2-thiouracil],,,,,,,,,,,,,,,,,,,,,IC50 (any cells): > 176 µM
